Assay results reported in patent US6465395B2, “Substituted methylene pyrazolinones and the herbicidal use thereof” (BASF Aktiengesellschaft, priority 2000, dated 2002).

Columns and labels:
Type in all cases: in vivo
[1] = tested on: GOSHI, Cotton, Gossypium hirsutum, L.; test: Postemergence herbicidal evaluation; details: crop (cotton)
Protocol: (§1) The postemergence herbicidal activity of the compounds of the present invention is evaluated by the following tests. Seedling plants are grown in jiffy flats for about two weeks. The test compounds are dispersed in 80/20 (v/v) acetone/water mixtures containing 1.0% SUN-IT®II, a methylated seed oil, in sufficient quantities to provide the equivalent of about 0.006 kg/ha to 0.800 kg/ha of active compound when applied to the plants through a spray nozzle operating at 40 psi for a predetermined time. After spraying, the plants are placed on greenhouse benches and are cared for in accordance with conventional greenhouse procedures. Approximately two to three weeks after treatment, the seedling plants are examined and rated according to the rating system set forth below. Where more than one test is involved for a given compound, the data are averaged.

[2] = tested on: ABUTH, Velvetleaf, Abutilon theophrasti, Medic.; test: Postemergence herbicidal evaluation
Protocol: as §1

[3] = tested on: AMBEL, Ragweed, Ambrosia artemisifolia, L.; test: Postemergence herbicidal evaluation
Protocol: as §1

[4] = tested on: CHEAL, Lambsquarters, Chenopodium album, L.; test: Postemergence herbicidal evaluation
Protocol: as §1

[5] = tested on: ECHCG, Barnyardgrass, Echinochloa crus-galli, (L.) Beau; test: Postemergence herbicidal evaluation
Protocol: as §1

[6] = tested on: IPOSS, Morningglory spp., Ipomoea spp.; test: Postemergence herbicidal evaluation
Protocol: as §1

[7] = tested on: ORYSAT, Rice, Tebonnet, Oryza sativa, (L.) Tebonnet; test: Postemergence herbicidal evaluation; details: crop (rice)
Protocol: as §1

[8] = tested on: PANDI, Panicum, Fall, Panicum dichotomiflorum, Michx; test: Postemergence herbicidal evaluation
Protocol: as §1

[9] = tested on: SETVI, Foxtail, Green, Setaria viridis, (L.) Beau; test: Postemergence herbicidal evaluation
Protocol: as §1

[10] = tested on: ZEAMX, Corn, Field, Zea mays, L.; test: Postemergence herbicidal evaluation; details: crop (corn)
Protocol: as §1

[11] = tested on: ABUTH, Velvetleaf, Abutilon theophrasti, Medic.; test: Preemergence herbicidal evaluation
Description: (§2) The preemergence herbicidal activity of the test compounds of the present invention is exemplified by the following tests in which the seeds of a variety of monocotyledonous and dicotyledonous plants are separately mixed with potting soil and planted on top of approximately one inch of soil in separate pint cups. After planting, the cups are sprayed with the selected aqueous acetone solution containing test compound in sufficient quantity to provide the equivalent of about 0.0125 kg/ha to 0.800 kg/ha of test compound per cup. The treated cups are then placed on greenhouse benches, watered and cared for in accordance with conventional greenhouse procedures. Approximately two to four weeks after treatment, the tests are terminated and each cup is examined and rated according to the rating system provided in Example 12. When more than one test is performed for a given compound, the data are averaged.

[12] = tested on: AMBEL, Ragweed, Ambrosia artemisifolia, L.; test: Preemergence herbicidal evaluation
Description: as §2

[13] = tested on: CHEAL, Lambsquarters, Chenopodium album, L.; test: Preemergence herbicidal evaluation
Description: as §2

[14] = tested on: ECHCG, Barnyardgrass, Echinochloa crus-galli, (L.) Beau; test: Preemergence herbicidal evaluation
Description: as §2

[15] = tested on: GOSHI, Cotton, Gossypium hirsutum, L.; test: Preemergence herbicidal evaluation; details: crop (cotton)
Description: as §2

[16] = tested on: IPOSS, Morningglory spp., Ipomoea spp.; test: Preemergence herbicidal evaluation
Description: as §2

[17] = tested on: ORYSAT, Rice, Tebonnet, Oryza sativa, (L.) Tebonnet; test: Preemergence herbicidal evaluation; details: crop (rice)
Description: as §2

[18] = tested on: PANDI, Panicum, Fall, Panicum dichotomiflorum, Michx; test: Preemergence herbicidal evaluation
Description: as §2

[19] = tested on: SETVI, Foxtail, Green, Setaria viridis, (L.) Beau; test: Preemergence herbicidal evaluation
Description: as §2

[20] = tested on: ZEAMX, Corn, Field, Zea mays, L.; test: Preemergence herbicidal evaluation; details: crop (corn)
Description: as §2

## CCCS/C(=C1/C=NN(CC)C1=O)c1ccc2c(c1C)/C(=N/OC)CCS2(=O)=O [Example 8b, 1-Ethyl-4-[(Z)-(5-methyl-4-oxothiochroman-6-yl)(propythio)methylene]-2-pyrazolin-5-one 4′-[(E)-O-methyloxime], S,S-dioxide]
[1]; 0.0500 kg/ha
  Herbicide rating GOSHI: 0.0
[1]; 0.1000 kg/ha
  Herbicide rating GOSHI: 0.0
[1]; 0.2000 kg/ha
  Herbicide rating GOSHI: 0.0
[1]; 0.4000 kg/ha
  Herbicide rating GOSHI: 4.0
[1]; 0.8000 kg/ha
  Herbicide rating GOSHI: 4.5
[2]; 0.0500 kg/ha
  Herbicide rating ABUTH: 1.0
[2]; 0.1000 kg/ha
  Herbicide rating ABUTH: 0.0
[2]; 0.2000 kg/ha
  Herbicide rating ABUTH: 5.0
[2]; 0.4000 kg/ha
  Herbicide rating ABUTH: 5.0
[2]; 0.8000 kg/ha
  Herbicide rating ABUTH: 6.0
[3]; 0.0500 kg/ha
  Herbicide rating AMBEL: 0.0
[3]; 0.1000 kg/ha
  Herbicide rating AMBEL: 5.0
[3]; 0.2000 kg/ha
  Herbicide rating AMBEL: 7.0
[3]; 0.4000 kg/ha
  Herbicide rating AMBEL: 7.0
[3]; 0.8000 kg/ha
  Herbicide rating AMBEL: 7.0
[4]; 0.0500 kg/ha
  Herbicide rating CHEAL: 7.0
[4]; 0.1000 kg/ha
  Herbicide rating CHEAL: 8.0
[4]; 0.2000 kg/ha
  Herbicide rating CHEAL: 8.0
[4]; 0.4000 kg/ha
  Herbicide rating CHEAL: 9.0
[4]; 0.8000 kg/ha
  Herbicide rating CHEAL: 9.0
[5]; 0.0500 kg/ha
  Herbicide rating ECHCG: 6.5
[5]; 0.1000 kg/ha
  Herbicide rating ECHCG: 8.0
[5]; 0.2000 kg/ha
  Herbicide rating ECHCG: 8.0
[5]; 0.4000 kg/ha
  Herbicide rating ECHCG: 9.0
[5]; 0.8000 kg/ha
  Herbicide rating ECHCG: 9.0
[6]; 0.0500 kg/ha
  Herbicide rating IPOSS: 0.0
[6]; 0.1000 kg/ha
  Herbicide rating IPOSS: 0.0
[6]; 0.2000 kg/ha
  Herbicide rating IPOSS: 0.0
[6]; 0.4000 kg/ha
  Herbicide rating IPOSS: 0.0
[6]; 0.8000 kg/ha
  Herbicide rating IPOSS: 0.0
[7]; 0.0500 kg/ha
  Herbicide rating ORYSAT: 1.0
[7]; 0.1000 kg/ha
  Herbicide rating ORYSAT: 1.7
[7]; 0.2000 kg/ha
  Herbicide rating ORYSAT: 3.5
[7]; 0.4000 kg/ha
  Herbicide rating ORYSAT: 1.5
[7]; 0.8000 kg/ha
  Herbicide rating ORYSAT: 3.5
[8]; 0.0500 kg/ha
  Herbicide rating PANDI: 2.0
[8]; 0.1000 kg/ha
  Herbicide rating PANDI: 6.0
[8]; 0.2000 kg/ha
  Herbicide rating PANDI: 7.0
[8]; 0.4000 kg/ha
  Herbicide rating PANDI: 7.0
[8]; 0.8000 kg/ha
  Herbicide rating PANDI: 6.0
[9]; 0.0500 kg/ha
  Herbicide rating SETVI: 3.5
[9]; 0.1000 kg/ha
  Herbicide rating SETVI: 3.5
[9]; 0.2000 kg/ha
  Herbicide rating SETVI: 4.0
[9]; 0.4000 kg/ha
  Herbicide rating SETVI: 9.0
[9]; 0.8000 kg/ha
  Herbicide rating SETVI: 9.0
[10]; 0.0500 kg/ha
  Herbicide rating ZEAMX: 0.0
[10]; 0.1000 kg/ha
  Herbicide rating ZEAMX: 0.0
[10]; 0.2000 kg/ha
  Herbicide rating ZEAMX: 0.0
[10]; 0.4000 kg/ha
  Herbicide rating ZEAMX: 0.0
[10]; 0.8000 kg/ha
  Herbicide rating ZEAMX: 0.0
[11]; 0.2000 kg/ha
  Herbicide rating ABUTH: 0.0
[11]; 0.4000 kg/ha
  Herbicide rating ABUTH: 0.0
[11]; 0.8000 kg/ha
  Herbicide rating ABUTH: 9.0
[12]; 0.2000 kg/ha
  Herbicide rating AMBEL: 0.0
[12]; 0.4000 kg/ha
  Herbicide rating AMBEL: 3.0
[12]; 0.8000 kg/ha
  Herbicide rating AMBEL: 6.0
[13]; 0.2000 kg/ha
  Herbicide rating CHEAL: 6.0
[13]; 0.4000 kg/ha
  Herbicide rating CHEAL: 7.0
[13]; 0.8000 kg/ha
  Herbicide rating CHEAL: 9.0
[14]; 0.2000 kg/ha
  Herbicide rating ECHCG: 0.0
[14]; 0.4000 kg/ha
  Herbicide rating ECHCG: 0.0
[14]; 0.8000 kg/ha
  Herbicide rating ECHCG: 0.0
[15]; 0.2000 kg/ha
  Herbicide rating GOSHI: 0.0
[15]; 0.4000 kg/ha
  Herbicide rating GOSHI: 0.0
[15]; 0.8000 kg/ha
  Herbicide rating GOSHI: 0.0
[16]; 0.2000 kg/ha
  Herbicide rating IPOSS: 0.0
[16]; 0.4000 kg/ha
  Herbicide rating IPOSS: 0.0
[16]; 0.8000 kg/ha
  Herbicide rating IPOSS: 0.0
[17]; 0.2000 kg/ha
  Herbicide rating ORYSAT: 0.0
[17]; 0.4000 kg/ha
  Herbicide rating ORYSAT: 0.0
[17]; 0.8000 kg/ha
  Herbicide rating ORYSAT: 0.0
[18]; 0.2000 kg/ha
  Herbicide rating PANDI: 2.0
[18]; 0.4000 kg/ha
  Herbicide rating PANDI: 7.0
[18]; 0.8000 kg/ha
  Herbicide rating PANDI: 7.0
[19]; 0.2000 kg/ha
  Herbicide rating SETVI: 3.0
[19]; 0.4000 kg/ha
  Herbicide rating SETVI: 0.0
[19]; 0.8000 kg/ha
  Herbicide rating SETVI: 3.0
[20]; 0.2000 kg/ha
  Herbicide rating ZEAMX: 0.0
[20]; 0.4000 kg/ha
  Herbicide rating ZEAMX: 0.0
[20]; 0.8000 kg/ha
  Herbicide rating ZEAMX: 0.0
